Results: US5641480A, “Hair care compositions comprising heteroatom containing alkyl aldonamide compounds” (Lever Brothers Company, Division of Conopco, Inc., priority 1994, dated 1997)
Read-outs that look alike come from different tables or passages of the source.

Columns and labels:
[1] = Clarity of prototype shampoo compositions with sodium lauryl sulfate (Example 87); format: physicochemical; conditions: room temperature, 6 months
Protocol: (§1) The prototype shampoo composition is as follows:
(§2) The above formulations were prepared by admixing the above ingredients in listed order and heating the mixture to about 80° C. with rapid stirring. The mixture was then cooled to about 40° C., placed in a clear jar and stored at room temperature for 6 months.

[2] = Ross-Miles foam height assay of aldonamides (Examples 81-84); format: physicochemical; conditions: 0.1% aldonamide, 40° C. (if not soluble, about 5°-10° C. above Krafft point), 0 ppm hardness; for Foam Height Final: after 10 minutes
Protocol: In the Ross-Miles method, 200 mL of a suffactant solution contained in a pipette of specified dimensions with a 2.9 -mm-i.d. orifice is allowed to fall 90 cm onto 50 mL of the same solution contained in a cylindrical vessel maintained at a given temperature by means of a water jacket. The height of the foam produced in the cylindrical vessel is read immediately after all the solution has run out of the pipette and then again after a given amount of time.
Using this method, the foam production (initial foam height in mm) and foam stability (final foam height after 10 minutes in mm) were measured at 0.1% aldonamtde concentration, 40° C. and 0 ppm (parts per million) hardness.

[3] = Viscosity of prototype shampoo compositions with sodium lauryl sulfate, Brookfield Digital Viscometer (Example 88); format: physicochemical; conditions: vs no thickener
Protocol: as §1, §2
It is well known that the viscosity of a liquid composition comprising of anionic surfactant can be modified by the addition of inorganic salts, such as sodium chloride. However, in the absence of an organic modifier, high levels of salt may be necessary to achieve the required viscosity which may lead to problems of storage at cold temperature or even salting out certain ingredients. In practice, however, the viscosity of a liquid composition is modified by the simultaneous addition of thickener and small amounts of inorganic salt (viscosity cobuilder). The combined effect is greater than either one alone. The viscosity of the above prototype shampoo composition comprising various amounts of heteroatom containing alkyl aldonamide compound is as follows: […]

[4] = Krafft point determination; format: physicochemical; conditions: 0.1% in water
Protocol: The temperature at and above which surfactants begin to form micelles instead of precipitates is referred to as the Krafft point (Tk) and at this temperature the solubility of a surfactant becomes equal to its CMC (numerical value at which micelles are formed).
The Krafft point was measured by preparing 650 ml of a 0.1% or 1.0% dispersion of aldonamide in water by weight. If the surfactant was soluble at room temperature, the solution was slowly cooled to 0° C. […] (less than zero). If it precipitated out of solution, the temperature at which precipitation occurs was taken as the Krafft point.
If the surfactant was insoluble at room temperature, the dispersion was slowly heated until the solution became homogeneous. It was then slowly cooled until precipitation occurred. The temperature at which the surfactant precipitates out of solution upon cooling was taken as the Krafft point.

[5] = Rosen, cited from earlier work
[6] = Area per molecule at the water/air interface (Example 95); format: physicochemical; conditions: 60 °C, estimated by extrapolation
Description: The area per molecule of a surfactant at the water/air interface provides information on the degree of packing and the orientation of the adsorbed surfactant molecule. While not wishing to be bound by theory, it is believed that surfactants that have small area per molecule values tend to pack more closely at the interface than those with large area per molecule values. From the surface excess concentration at surface saturation (Γmax), the area per molecule (am) of C8 /C10 oxypropyl D-gluconamide was determined and is given by:
am =1×10^16 /Nav Γmax

[7] = Rosen, cited from earlier work; remark: listed apart in the source
[8] = Effectiveness in reducing surface tension (Example 93); format: physicochemical; conditions: 60 °C, estimated by extrapolation
Description: As mentioned before, surface tension reduction depends on the replacement of water molecules at the interface by surfactant molecules, therefore the effectiveness of a surfactant in reducing interfacial surface tension should reflect the saturated concentration of surfactant at the interface relative to that in bulk liquid phase. During this process the surface tension of water steadily decreases as bulk phase surfactant concentration increases. This will continue until the concentration reaches the critical micelle concentration (CMC), above which the surface tension remains nearly unchanged and the interface is saturated with surfactant. The surface tension at the CMC is therefore very close to the minimum interfacial tension or maximum surface pressure that the system can achieve. The surface pressure at this point, IIcmc, is a suitable measure of the effectiveness of a surfactant in reducing surface tension and is given as:
.PI.cmc 20+2.3nRT(Γmax) log [CMC/C20 ]
n=1 which represents the number of ions whose surface concentration changes with the change in liquid phase suffactant concentration.
CMC/C20 =is the ratio of the critical micelle concentration to the bulk phase surfactant concentration necessary to reduce the surface tension of water by 20 dyn/cm.

[9] = 25 °C, Rosen; cited from earlier work
[10] = Effectiveness of adsorption, surface excess concentration at surface saturation (Example 94); format: physicochemical; conditions: 60 °C, estimated by extrapolation
Description: The surface excess concentration at surface saturation (Γmax) is defined as a measure of the effectiveness of surfactant adsorption at the water/air interface and represents the maximum value to which adsorption can be obtained. Effectiveness of adsorption is related to the interfacial area occupied by the surfactant molecule. The smaller the effective cross-sectional area of a surfactant at the interface, the greater its effectiveness of adsorption. The effectiveness of adsorption is an important factor in determining surfactant properties such as detergency, foaming, wetting or emulsification. While not wishing to be bound by theory, it is believed that surfactants that absorb effectively at the interface tend have tightly packed coherent interfacial films and often provide better surfactant benefits than those with loosely packed noncoherent films. The effectiveness of adsorption of C8 /C10 oxypropyl D-gluconamide was determined using the Gibbs equation given as: […]
ergs/cm^2 (which is equivalent to the slope of a plot of γ

[11] = Rosen, cited from earlier work; remark: listed apart in the source
[12] = 5.0% thickener in […] sodium lauryl sulfate shampoo
[13] = 3.0% thickener in […] sodium lauryl sulfate shampoo

CCCCCCCCCNC(=O)[C@H](O)[C@@H](O)[C@H](O)[C@H](O)CO [C9 D-Gluconamide]
Appearance (Time) ([1]; 4.0% thickener in […] sodium lauryl sulfate shampoo): Precipitate (2 weeks) | Appearance (Time) [1, 12]: Precipitate (2 weeks) | Foam Height Initial [2]: 0 mm | Foam Height Final [2]: 0 mm

CCCCCCCCCCNC(=O)[C@H](O)[C@@H](O)[C@H](O)[C@H](O)CO [C10 D-Gluconamide]
Appearance (Time) [1, 13]: Precipitate (1 week) | Appearance (Time) [1, 12]: Precipitate (5 days) | Foam Height Initial [2]: 199 mm | Foam Height Final [2]: 6 mm

CCCCCCCCCCCCOCCCNC(=O)[C@H](O)[C@@H](O)[C@H](O)[C@H](O)CO [C12 Oxypropyl D-Gluconamide]
Appearance (Time) [1, 13]: Clear | Appearance (Time) [1, 12]: Precipitate (5 months) | Increase (viscosity) ([3]; 3.0% thickener): 120 × | Increase (viscosity) ([3]; 5.0% thickener): 1373 × | Foam Height Initial [2]: 200 mm | Foam Height Final [2]: 110 mm

CCCCCCCCCCCCOCCCNC(=O)[C@H](O)[C@@H](O)[C@H](O[C@@H]1O[C@H](CO)[C@H](O)[C@H](O)[C@H]1O)[C@H](O)CO [C12 Oxypropyl D-Lactobionamide, Dodecyloxypropyl D-Lactobionamide]
Increase (viscosity) ([3]; 3.0% thickener): 23 × | Increase (viscosity) ([3]; 5.0% thickener): 97 × | Foam Height Initial [2]: 165 mm | Foam Height Final [2]: 154 mm | Krafft Point (0.1%) [4]: < 0 °C

CCCCCCCCCCCCOCCOCCOCCOCCOCCO [Dodecylpenta(oxyethylene) Ether]
Γmax (surface excess concentration at surface saturation) ([5]; 25 °C): 3.31 × 10^-10 mole/cm^2 | Γmax (surface excess concentration at surface saturation) ([5]; 40 °C): 3.28 × 10^-10 mole/cm^2 | am (area per molecule) [6]: 52.3 Å^2 | am (area per molecule) ([7]; 25 °C): 50.1 Å^2 | am (area per molecule) ([7]; 40 °C): 50.6 Å^2 | .PI.cmc (surface pressure) [8]: 40.7 dyn/cm | pC20 [9]: 5.37 | Γmax (surface excess concentration at surface saturation) [10]: 3.16 × 10^-10 mole/cm^2 | .PI.cmc (surface pressure) ([11]; 25 °C): 41.5 dyn/cm | CMC/C20 ([11]; 25 °C): 15.0 | .PI.cmc (surface pressure) ([11]; 40 °C): 41.2 dyn/cm

CCCCCCCCCCCCOCCOCCOCCOCCO [Dodecyltetra(oxyethylene) Ether]
Γmax (surface excess concentration at surface saturation) ([5]; 25 °C): 3.63 × 10^-10 mole/cm^2 | Γmax (surface excess concentration at surface saturation) ([5]; 40 °C): 3.41 × 10^-10 mole/cm^2 | am (area per molecule) [6]: 53.3 Å^2 | am (area per molecule) ([7]; 25 °C): 45.7 Å^2 | am (area per molecule) ([7]; 40 °C): 48.7 Å^2 | .PI.cmc (surface pressure) [8]: 40.7 dyn/cm | pC20 [9]: 5.34 | Γmax (surface excess concentration at surface saturation) [10]: 3.01 × 10^-10 mole/cm^2 | .PI.cmc (surface pressure) ([11]; 25 °C): 43.4 dyn/cm | CMC/C20 ([11]; 25 °C): 13.7 | .PI.cmc (surface pressure) ([11]; 40 °C): 42.0 dyn/cm | CMC/C20 ([11]; 40 °C): 11.8

CCCCCCCCCCCCOCCOCCOCCO [Dodecyltri(oxyethylene) Ether]
Γmax (surface excess concentration at surface saturation) ([5]; 25 °C): 3.98 × 10^-10 mole/cm^2 | Γmax (surface excess concentration at surface saturation) ([5]; 40 °C): 3.90 × 10^-10 mole/cm^2 | am (area per molecule) [6]: 45.4 Å^2 | am (area per molecule) ([7]; 25 °C): 41.7 Å^2 | am (area per molecule) ([7]; 40 °C): 42.5 Å^2 | .PI.cmc (surface pressure) [8]: 41.4 dyn/cm | pC20 [9]: 5.34 | Γmax (surface excess concentration at surface saturation) [10]: 3.83 × 10^-10 mole/cm^2 | .PI.cmc (surface pressure) ([11]; 25 °C): 44.1 dyn/cm | CMC/C20 ([11]; 25 °C): 11.4 | .PI.cmc (surface pressure) ([11]; 40 °C): 43.1 dyn/cm

CCCCCCCC/C=C\CCCCCCCCNCCCNC(=O)[C@H](O)[C@@H](O)[C@H](O[C@@H]1O[C@H](CO)[C@H](O)[C@H](O)[C@H]1O)[C@H](O)CO [Oleylaminopropyl D-Lactobionamide]
Foam Height Initial [2]: 169 mm | Foam Height Final [2]: 165 mm | Krafft Point (0.1%) [4]: < 0 °C

Coco D-Gluconamide
Appearance (Time) [1, 13]: Precipitate (1 day) | Appearance (Time) [1, 12]: Precipitate (2 hours)

Cocoaminopropyl D-Gluconamide
Appearance (Time) [1, 13]: Clear | Appearance (Time) [1, 12]: Clear | Foam Height Initial [2]: 186 mm | Foam Height Final [2]: 182 mm

Cocoaminopropyl D-Lactobionamide
Foam Height Initial [2]: 171 mm | Foam Height Final [2]: 168 mm | Krafft Point (0.1%) [4]: < 0 °C

Dodecyl to Pentadecyloxypropyl D-Lactobionamide [C12 -C15 Oxypropyl D-Lactobionamide]
Foam Height Initial [2]: 166 mm | Foam Height Final [2]: 155 mm | Krafft Point (0.1%) [4]: < 0 °C

Dodecyl to Pentadecyloxypropylaminopropyl D-Lactobionamide
Foam Height Initial [2]: 173 mm | Foam Height Final [2]: 169 mm | Krafft Point (0.1%) [4]: < 0 °C

Octyl/Decyloxypropyl D-Lactobionamide [C8 /C10 Oxypropyl D-Lactobionamide]
Appearance (Time) [1, 13]: Clear | Appearance (Time) [1, 12]: Clear | Foam Height Initial [2]: 168 mm | Foam Height Final [2]: 158 mm | Krafft Point (0.1%) [4]: < 0 °C
